Tested on: 475296-252-R-J1-PDC spheroid viability
Assay: Anticancer human tumor 475296-252-R-J1-PDC patient-derived rectal carcinoma cell line growth inhibition [PI3K]
Conditions: spheroids with HUVEC and MSC; for IC50: curve of first compound; for viability, T/C: stronger effect = lower value
Excerpt: Combinatorial screen of targeted agents with the PI3K inhibitors inavolisib, alpelisib, duvelisib, and copanlisib in multi-cell type tumor spheroids
A high-throughput screen of multi-cell type tumor spheroids was designed to identify active combinations of targeted small molecules and PI3K pathway inhibitors. Complex spheroids include a stromal component modeled by human endothelial cells (HUVEC) and fibroblasts modeled by human mesenchymal stem cells (MSCs). The concentration ranges selected for each drug and investigational agent were based upon clinically achievable concentrations if the clinical Cmax of the agent was known.
Compounds. The drugs and investigational agents: inavolisib (NSC800729), alpelisib (NSC765974), duvelisib (NSC772469), copanlisib (NSC816437), ipatasertib (NSC767898), afuresertib (NSC778305), talazoparib (NSC767125), sapanisertib (NSC764658), selumetinib (NSC741078), tovorafenib (DAY101, NSC766906), vemurafenib (NSC761431), ravoxertinib (NSC781343), sotorasib (NSC818433), MRTX1133 (NSC 836407), abemaciclib (NSC 768073), palbociclib (NSC758247), venetoclax (NSC 766270), SY5609 (NSC837396), enzalutamide (NSC755605), and darolutamide (NSC825331), were obtained from the National Cancer Institute (NCI) Developmental Therapeutics Program Chemical Repository. The FDA-approved anticancer drug set is available from the NCI Developmental Therapeutics Program. […] The stock solutions were prepared in dimethyl sulfoxide (DMSO, Sigma-Aldrich, St. Louis, MO, cat. D2650) at 800-fold the tested concentration and stored at -70 degrees C prior to their use. All drugs and investigational agents were tested over a range starting from a high concentration at or near the clinical Cmax and decreasing in half-log increments. If the clinical Cmax for an agent had not been determined, the highest concentration tested was 10 microM.
Cell Culture. All cells were maintained in an incubator at 37 degrees C and 5% CO2 with 95% humidity. The PDC lines were cultured according to standard operating procedures established by the NCI PDMR (https://pdmr.cancer.gov/sops/default.htm). All PDCs were thawed and cultured in Matrigel-coated flasks prepared with a working solution of 1X Ham's F-12 nutrient mix, without supplementation (Invitrogen, Waltham, MA, cat. 11765054), 100 U/mL penicillin-streptomycin (Invitrogen, cat. 15140122), and 2.5% Matrigel (Corning Inc., Corning, NY, cat. 354248) for the first three passages. The 354836-022-R-J1-PDC, 475296-252-R-J1-PDC, and 997726-040-R-J2-PDC lines were cultured in 6A media, which includes advanced DMEM/F-12 (Thermo Fisher Scientific, cat. 12634028), 10 mM HEPES (Thermo Fisher Scientific, cat. 15630080), 1X GlutaMAX supplement (Thermo Fisher Scientific, cat. 35050061), 0.1 mg/mL primocin (InvivoGen, San Diego, CA, cat. ant-pm-2), 10% defined fetal bovine serum, heat inactivated (HyClone Laboratories Inc., Logan, UT, cat. SH30070.03HI), 50% L-WRN conditioned media (ATCC, cat. CRL-3276), 1.25 mM N-Acetyl-L-cysteine (Sigma-Aldrich, cat. A9165), 10 mM nicotinamide (Sigma-Aldrich, cat. N0636), 1X B-27 supplement (Thermo Fisher Scientific, cat. 17504044), 1X N-2 supplement (Thermo Fisher Scientific, cat. 17502048), and 10 microM Y-27632 dihydrochloride (Tocris Bioscience, Bristol, United Kingdom, cat. 1254). The 624824-186-R-J2-PDC line was cultured in 6C/Colon 1B media, which includes all 6A media components plus 50 ng/mL human EGF recombinant protein (Thermo Fisher Scientific, cat. PHG0311). […]
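Further: spheroids exposed to agents for seven days before readout.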

CC(=O)c1c(C)c2cnc(Nc3ccc(N4CCNCC4)cn3)nc2n(C2CCCC2)c1=O + Cc1nc(NC(=O)N2CCCC2C(N)=O)sc1-c1ccnc(C(C)(C)C(F)(F)F)c1
IC50 (second compound 0.0316 µM): > 100 nM | IC50 (second compound 0.1 µM): > 100 nM | IC50 (second compound 0.316 µM): > 100 nM | IC50 (second compound 1 µM): > 100 nM | IC50 (second compound 3.16 µM): > 100 nM | IC50 (second compound 10 µM): > 100 nM | viability, T/C (second compound 0.0316 µM, first compound 0.000316 µM): 99.6% | viability, T/C (second compound 0.0316 µM, first compound 0.001 µM): 96.9% | viability, T/C (second compound 0.0316 µM, first compound 0.00316 µM): 101% | viability, T/C (second compound 0.0316 µM, first compound 0.01 µM): 97.4% | viability, T/C (second compound 0.0316 µM, first compound 0.0316 µM): 117% | viability, T/C (second compound 0.0316 µM, first compound 0.1 µM): 118% | viability, T/C (second compound 0.1 µM, first compound 0.000316 µM): 106% | viability, T/C (second compound 0.1 µM, first compound 0.001 µM): 94.4% | viability, T/C (second compound 0.1 µM, first compound 0.00316 µM): 107% | viability, T/C (second compound 0.1 µM, first compound 0.01 µM): 91.3% | viability, T/C (second compound 0.1 µM, first compound 0.0316 µM): 103% | viability, T/C (second compound 0.1 µM, first compound 0.1 µM): 108% | viability, T/C (second compound 0.316 µM, first compound 0.000316 µM): 92% | viability, T/C (second compound 0.316 µM, first compound 0.001 µM): 114% | viability, T/C (second compound 0.316 µM, first compound 0.00316 µM): 94.1% | viability, T/C (second compound 0.316 µM, first compound 0.01 µM): 101% | viability, T/C (second compound 0.316 µM, first compound 0.0316 µM): 110% | viability, T/C (second compound 0.316 µM, first compound 0.1 µM): 101% | viability, T/C (second compound 1 µM, first compound 0.000316 µM): 101% | viability, T/C (second compound 1 µM, first compound 0.001 µM): 95.5% | viability, T/C (second compound 1 µM, first compound 0.00316 µM): 100% | viability, T/C (second compound 1 µM, first compound 0.01 µM): 112% | viability, T/C (second compound 1 µM, first compound 0.0316 µM): 104% | viability, T/C (second compound 1 µM, first compound 0.1 µM): 102% | viability, T/C (second compound 3.16 µM, first compound 0.000316 µM): 90.4% | viability, T/C (second compound 3.16 µM, first compound 0.001 µM): 102% | viability, T/C (second compound 3.16 µM, first compound 0.00316 µM): 96.8% | viability, T/C (second compound 3.16 µM, first compound 0.01 µM): 99% | viability, T/C (second compound 3.16 µM, first compound 0.0316 µM): 99.8% | viability, T/C (second compound 3.16 µM, first compound 0.1 µM): 98.9% | viability, T/C (second compound 10 µM, first compound 0.000316 µM): 98% | viability, T/C (second compound 10 µM, first compound 0.001 µM): 92.7% | viability, T/C (second compound 10 µM, first compound 0.00316 µM): 96.9% | viability, T/C (second compound 10 µM, first compound 0.01 µM): 98.9% | viability, T/C (second compound 10 µM, first compound 0.0316 µM): 98.8% | viability, T/C (second compound 10 µM, first compound 0.1 µM): 90.2%
